Reference: patent publication US20150056702A1, “METHOD AND KIT FOR CULTURING STEM CELLS” (China Medical University, priority 2013, published 2015)

Columns and labels:
Type in all cases: cell-based, mouse
[1] = system: IL5; assay: Real-time PCR, cytokine gene IL5 in ES cells; settings: for IL5 mRNA expression level: ES cells, control group = 100%
Procedure: (§1) An experimental group medium (BP5, BP10, BP20 or BP40) and a control group medium (without BP) were added respectively to perform the following steps. ES cells were cultured with an initial density of 1×10^4 per well in a 6-well culture dish. The medium was removed until the cells growth to be about 70 to 80% confluence, and then 1 ml TRIzol (Invitrogen) was added into each well. The cells were incubated for 5 minutes, and then was scraped by a spatula and placed into a 1.5 ml microtube to be lysed adequately. Chloroform (0.2 ml) was added into the microtubes. The mixture was shaken up and down for 15 seconds, and then incubated at room temperature for 2 to 3 minutes. Thereafter, the mixture was centrifuged at 12000 rpm at 4° C. for 15 minutes, and the supernatant was removed into another 1.5 ml microtube and isopropanol (0.5 ml) was added into the microtube with well mixing. The mixture was incubated at room temperature for 10 minutes and then centrifuged at 12000 rpm at 4° C. for 10 minutes. The supernatant was then removed. One ml of 70% ethanol containing DEPC.H2O was used to wash the remaining sediment. The sediment was centrifuged at 7500 rpm at 4° C. for 5 minutes. The supernatant was removed. The sediment was dried by vacuum suction. The dried samples were dissolved in about 0.01 to 0.02 ml of DEPC.H2O to obtain the experimental group RNA and control group RNA. Both groups were stored at −80° C.
(§2) The OD value of RNA samples in both groups obtained from the above Experiment I were measured at a wavelength of 260 nm (RNA: OD260=1 for a 40 μg/mL solution). Each RNA sample (2 μl) was added with RNA-free water until the volume of the sample reached 10 μl. Two μl oligo (dT) (100 μg/ml) was added into each sample, and the samples were incubated at 65° C. for 5 minutes. Then, the samples were immediately placed on ice and spun down. Next, 6.5 μl of a reaction solution [4 μl of 5× buffer+1 μl of 0.1 M DTT+1 μl of RNase out+0.5 μl of SSIII (Invitrogen)] was added into each of the samples, and the samples were incubated at 50° C. for about 30 to 60 minutes and at 75° C. for 15 minutes to obtain the experimental group cDNA and control group cDNA. Both groups were stored at −80° C.
(§3) This experiment was used to detect the expression levels of ES cell-related genes, i.e., Oct4 and Sox2, etc. First, 4 μl of the experimental group cDNA or control group cDNA was added into each well of a 96-well micro-reaction plate, and mixed with 6 μl of a reaction solution [0.5 μl of 6 μM forward primer+0.5 μl of 6 μM reverse primer+5 μl of SYBR Green PCR Master mix (Roche)], wherein the SYBR Green PCR Master mix included the reagents needed for Q-PCR, such as dNTPs, MgCl, Taq DNA polymerase and 2×SYBR® Green I solution. […] The cycle threshold (CT) values were measured. […]

[2] = system: Nanog; assay: Immunofluorescence staining, Nanog in ES cells; settings: for Nanog expression level: ES cells, 72 hours, control group = 100%
Description: (§4) Nanog and SSEA1 are also marker proteins of stem cells, and their expression levels could be measured by immunofluorescence staining to further confirm whether BP can effectively maintain the self-renewal and pluripotency of stem cells.
(§5) An experimental group medium (BP5, BP10, BP20 or BP40), a LIF-containing medium (without BP), and a control group medium (without BP) were used respectively in a 6-well culture dish which comprises a slide in each well to culture ES cells with an initial density of 1×10^4 per well for 72 hours. The medium was removed and the cells were washed with PBS. Next, PBS was removed, and then 4% paraformaldehyde was added to perform the fixation at room temperature for 10 minutes. Next, paraformaldehyde was removed, and then slides were washed with 0.1% Tween-20/1X PBS three times for 10 minutes each time. The 0.3% Tween-20/1X PBS was added and held at room temperature for 30 minutes to penetrate the cell membrane to benefit the dye entry. After the slides were washed three times with 0.1% Tween-20, 5% FBS/1×PBS was added to perform a blocking reaction at room temperature for 2 hours, and then reacting with the primary antibody [anti-Nanog (Novus) or anti-SSEA1 (Millipore)] at a dilution of 1:100 at room temperature overnight. Slides were then washed 5 times with 0.1% Tween-20, then reacting with the secondary antibody [FITC-conjugated anti-mouse IgG or TRITC-conjugated anti-rabbit IgG (Sigma-Aldrich)] at a dilution of 1:500. After washed with 0.1% Tween-20 for 10 minutes, slides were mounted with the DAPI-containing UltraCruz™ Mounting medium and observed using an inverted fluorescent microscope.

[3] = system: Jak2; assay: Real-time PCR, Jak2 mRNA in ES cells; settings: for Jak2 Gene expression level: ES cells, control group = 100%
Procedure: as §1, §2, §3

[4] = system: SSEA1; assay: Immunofluorescence staining, SSEA1 in iPS cells; settings: 72 hours, control group = 100%
Description: as §4, §5
By using the above culture conditions, an experimental group medium (BP5, BP10, BP20 or BP40), a LIF-containing medium (without BP), and a control group medium (without BP) were used respectively to culture iPS cells. The staining of iPS cells was performed by using the steps described above.

[5] = system: SSEA1; assay: Immunofluorescence staining, SSEA1 in ES cells; settings: for SSEA1 expression level: ES cells, 72 hours, control group = 100%
Description: as §4, §5

[6] = system: EPO; assay: Real-time PCR, cytokine gene EPO in ES cells; settings: for EPO mRNA expression level: ES cells, control group = 100%
Procedure: as §1, §2, §3

[7] = LIF-containing medium (LIF 4 ng/ml)
[8] = LIF-containing medium (LIF 4 ng/ml, without BP)
[9] = BP10 medium (about 10 μg BP/ml)
[10] = BP-containing ES cell medium, result in words
[11] = BP20 medium (about 20 μg BP/ml)
[12] = BP40 medium (about 40 μg BP/ml)
[13] = BP-containing ES cell medium vs control group (without BP), result in words

Compound: LIF: multifunctional cell factor used to maintain pluripotency of stem cells; LIF-containing medium (4 ng/ml, without BP) as comparison
- IL5 mRNA expression level [1, 7]: 35%
- Nanog expression level [2, 8]: 204.46%
- Jak2 Gene expression level [3, 8]: 159%
- SSEA1 expression level [4, 8]: 230%
- SSEA1 expression level [5, 8]: 242.01%
- EPO mRNA expression level [6, 7]: 91%

Compound: CCCC=C1OC(=O)c2ccccc21 [BP, n-butylidenephthalide]
- IL5 mRNA expression level ([1]; BP5 medium (about 5 μg BP/ml)): 65%
- IL5 mRNA expression level [1, 9]: 175%
- mRNA expression level of IL-5 [1, 10]: significantly up-regulated
- Nanog expression level ([2]; BP5 medium (about 5 μg BP/ml)): 113.22%
- Nanog expression level [2, 9]: 183.28%
- Nanog expression level [2, 11]: 213.8%
- Nanog expression level [2, 12]: 212.83%
- expression level of Nanog [2, 13]: higher
- Jak2 Gene expression level ([3]; BP5 medium (about 5 μg BP/ml)): 180%
- Jak2 Gene expression level [3, 9]: 211%
- mRNA expression level of Jak2 ([3]; BP-containing ES cell medium (BP5 or BP10), result in words): significantly up-regulated
- SSEA1 expression level ([4]; BP5 medium (about 5 μg BP/ml)): 117%
- SSEA1 expression level [4, 9]: 101%
- SSEA1 expression level [4, 11]: 94%
- SSEA1 expression level [4, 12]: 137%
- SSEA1 expression level ([5]; BP5 medium (about 5 μg BP/ml)): 76.27%
- SSEA1 expression level [5, 9]: 202.82%
- SSEA1 expression level [5, 11]: 172.12%
- SSEA1 expression level [5, 12]: 145.71%
- expression level of SSEA1 [5, 13]: higher
- EPO mRNA expression level ([6]; BP5 medium (about 5 μg BP/ml)): 97%
- EPO mRNA expression level [6, 9]: 196%
- mRNA expression level of EPO [6, 10]: significantly up-regulated
